Where “and” joins values, the source holds several entries; their conditions need not be identical. Identical values can stand only once.
Legend:
human GR = target: T1, human GR (Homo sapiens, UniProt P04150); test: GR transcriptional activation, CV-1 cells; assay type: cell-based
T1 construct: expressed in transfected cells; host or cells: CV-1 cells (ATCC CCL-70), adenoviral transduction
T1 sequence (P04150 1-777): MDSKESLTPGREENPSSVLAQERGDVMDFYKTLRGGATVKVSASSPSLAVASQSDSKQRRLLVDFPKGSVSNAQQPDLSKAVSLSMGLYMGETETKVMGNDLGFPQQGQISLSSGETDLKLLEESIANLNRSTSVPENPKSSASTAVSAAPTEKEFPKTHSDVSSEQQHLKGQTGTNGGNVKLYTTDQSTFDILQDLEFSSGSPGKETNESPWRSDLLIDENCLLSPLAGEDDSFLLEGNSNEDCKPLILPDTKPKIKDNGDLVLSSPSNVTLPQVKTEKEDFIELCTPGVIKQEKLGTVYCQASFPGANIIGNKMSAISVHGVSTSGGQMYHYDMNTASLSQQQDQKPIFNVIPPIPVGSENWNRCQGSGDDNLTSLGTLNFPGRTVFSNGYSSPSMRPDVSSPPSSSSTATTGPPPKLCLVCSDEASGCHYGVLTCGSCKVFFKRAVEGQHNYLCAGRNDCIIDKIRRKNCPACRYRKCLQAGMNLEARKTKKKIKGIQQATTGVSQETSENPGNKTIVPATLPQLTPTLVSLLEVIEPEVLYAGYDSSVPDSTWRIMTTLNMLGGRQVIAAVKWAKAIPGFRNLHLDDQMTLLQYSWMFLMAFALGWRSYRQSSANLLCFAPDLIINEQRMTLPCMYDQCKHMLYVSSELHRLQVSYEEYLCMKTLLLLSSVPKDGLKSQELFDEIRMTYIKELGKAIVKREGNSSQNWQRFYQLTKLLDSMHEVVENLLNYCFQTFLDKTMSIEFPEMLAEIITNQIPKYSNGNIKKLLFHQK
Procedure: HFPO-DA was assessed for agonism and antagonism of transcriptional activation for estrogen (ER), androgen (AR), and glucocorticoid receptors (GR). Method details for in vitro transactivation assays for ER ([Wilson et al. 2004a]), AR ([Hartig et al. 2002], [2007]), and GR ([Conley et al. 2017]; [Medlock Kakaley et al. 2018]) have been previously reported. Briefly, for ER activity we utilized the stably transfected T47D-KBluc cell line [publicly available via American Type Culture Collection (ATCC); CRL-2865] according to protocols provided by ATCC with the modification of Dulbecco’s Modified Eagle Media (DMEM) as the cell culture media instead of Roswell Park Memorial Institute (RPMI) media. […] All assays were run in 96-well plates and luminescence was detected using a BMG Fluostar Omega luminometer (BMG Labtech) following 24-h exposure. […] Cellular cytotoxicity across the dosing range was determined for CV-1 cells utilizing the 3-(4,5-dimethylthiazol-2-yl)-2,5-diphenyltetrazolium bromide (MTT) dye ([Mosmann 1983]). HFPO-DA was analyzed using n=2–3 biological replicate assay plates (i.e., unique cell passages) with four technical replicates per treatment per plate. […]

[1] = test system: pregnant Sprague-Dawley rats; test: Maternal serum thyroid hormones and lipid panel; assay type: in vivo
Procedure: Maternal serum samples from the first two blocks were analyzed for thyroid hormones and a standard lipid panel. Total triiodothyronine ( T3 ) and thyroxine ( T4 ) were quantified by radioimmunoassay (RIA) according to manufacturer specifications (IVD Technologies). […] Thyroid hormone RIA values were considered below detection when specific binding ( B/B0 ) was ≥90% ( 0.2 ng/mL for T3 and 2 ng/mL for T4 ) ([Sui and Gilbert 2003]). Serum total cholesterol, high-density lipoproteins (HDL), low-density lipoproteins (LDL), and triglycerides were quantified using a Beckman Coulter AU480 clinical chemistry analyzer (Beckman Coulter, Inc.) as per manufacturer’s protocol. All reagents were obtained from the instrument manufacturer except for the LDL assay, which was obtained from Diazyme Laboratories.

[2] = test system: pregnant Sprague-Dawley rats; test: Dose-response analyses (EC5) versus maternal serum HFPO-DA concentration; assay type: in vivo
Procedure: Dose–response analyses for the in vitro transactivation assay data and the most sensitive in vivo end points and were conducted using four-parameter logistic regression in GraphPad Prism (constraint to bottom=0% , top=100% ). In vitro luminescence data was normalized to background (vehicle control), log10 transformed, and converted to percentage maximum response based on saturating levels of reference agonist. In vivo data were modeled as a function of log10 -transformed internal dose (i.e., dam serum HFPO-DA concentration from GD18), and response data was normalized to control and presented as a percentage. We estimated effect concentrations equivalent to a 5% deviation from control ( EC5 ). Reduction in maternal serum T3 concentration was modeled by ascribing a concentration of one-half of the detection limit (i.e., 0.1 ng/mL; detection limit of 0.2 ng/mL ) for the dose groups that were below the detection limit.

**Q.** Which glucocorticoid receptor agonism (human GR; 100 pM to 100 μM) does the source give for O=C(O)C(F)(OC(F)(F)C(F)(F)C(F)(F)F)C(F)(F)F (centres unmarked) [HFPO-DA, Hexafluoropropylene oxide dimer acid] here?
**A.** no androgen or glucocorticoid receptor agonism

**Q.** What about the “glucocorticoid receptor antagonism, reduction in luciferase expression” value (human GR; 100 μM, versus 1 nM Dex) of the same compound?
**A.** 28±3%

**Q.** What about the “serum total T3 in the top two dose levels” value ([1]; 250 and 500 mg/kg/d) of the same compound?
**A.** < 0.2 ng/mL

**Q.** What about the “Dam serum HDL” value ([1]; GD18, 1-500 mg/kg/d) of the same compound?
**A.** 36.3 ± 3.7 mg/dL and 36.0 ± 2.5 mg/dL and 33.0 ± 3.6 mg/dL and 37.0 ± 1.2 mg/dL and 36.7 ± 4.7 mg/dL and 28.7 ± 3.2 mg/dL and 19.3 ± 2.7 mg/dL

**Q.** And the “Dam serum LDL” value ([1]; GD18, 1-500 mg/kg/d)?
**A.** 14.7 ± 0.9 mg/dL and 14.0 ± 1.2 mg/dL and 12.7 ± 0.9 mg/dL and 12.3 ± 1.9 mg/dL and 13.3 ± 1.9 mg/dL and 19.0 ± 3.2 mg/dL and 14.7 ± 0.3 mg/dL and 14.0 ± 0.6 mg/dL

**Q.** What about the “dose with lower maternal serum thyroid hormone and lipid profiles” value ([1]; oral GD14-18) of the same compound?
**A.** ≥ 30 mg/kg

**Q.** And the “dose with significantly lower serum total T3” value ([1]; rat, in vivo)?
**A.** ≥ 30 mg/kg

**Q.** And the “dose with significantly lower serum triglycerides” value ([1]; rat, in vivo)?
**A.** 500 mg/kg

**Q.** And the “dose with significantly lower total T4 and LDL” value ([1]; rat, in vivo)?
**A.** ≥ 125 mg/kg

**Q.** What about the “EC5, maternal serum T3” value ([2]; 5% deviation from control, maternal serum HFPO-DA) of the same compound?
**A.** 3.8 µg/mL

**Q.** And the “estimated maternal oral dose at T3 EC5” value ([2]; linear equation from Figure 5)?
**A.** 8.2 mg/kg

**Q.** And the “EC5, maternal liver Ehhadh expression” value ([2]; maternal serum HFPO-DA)?
**A.** 14.1 µg/mL

**Q.** And the “EC5, maternal liver weight” value ([2]; maternal serum HFPO-DA)?
**A.** 17.6 µg/mL

**Q.** And the “EC5, maternal serum T4” value ([2]; maternal serum HFPO-DA)?
**A.** 17.8 µg/mL

Source: article PMC6768323, “Adverse Maternal, Fetal, and Postnatal Effects of Hexafluoropropylene Oxide Dimer Acid (GenX) from Oral Gestational Exposure in Sprague-Dawley Rats” (Environmental Health Perspectives, 2019)
